Measured values taken from patent US20230233569A1 (Revolution Medicines, Inc., priority 2020, published 2023).
pIC50: −log10 of the molar value.

Key:
Test in all cases: Ras-Raf disruption / FRET / MOA assay (BRAF RBD)
Type in all cases: biochemical
[1] = biological target: KRAS G12D (Homo sapiens, UniProt P01116+P62937, G12D); settings: Ras-Raf disruption, with Cyclophilin A; read-out: KRAS G12D FRET data IC50
In short: (§1)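 TR-FRET in 25 mM HEPES pH 7.3, 100 mM NaCl, 5 mM MgCl2, 0.1% BSA, 0.002% Tween20 with 25 μM Cyclophilin A, 12.5 nM His6-Ras-GMPPNP, 50 nM GST-BRAF RBD; compound 10-point 3-fold series from 30 μM. After 3 h at 25 °C, Eu anti-His/APC anti-GST added for 1.5 h; IC50 from ratio decrease versus DMSO.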

[2] = biological target: KRAS G12S (Homo sapiens, UniProt P01116+P62937, G12S); settings: Ras-Raf disruption, with Cyclophilin A; read-out: KRAS G12S FRET data IC50
KRAS G12S, sequence (P01116 1-169 isoform P01116-2 G12S limits assumed): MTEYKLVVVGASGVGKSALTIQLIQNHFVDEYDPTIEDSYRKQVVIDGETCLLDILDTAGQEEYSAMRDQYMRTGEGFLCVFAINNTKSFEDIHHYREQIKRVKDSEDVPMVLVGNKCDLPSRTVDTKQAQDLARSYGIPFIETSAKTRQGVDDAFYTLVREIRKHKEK
KRAS G12S, sequence (P62937 whole entry): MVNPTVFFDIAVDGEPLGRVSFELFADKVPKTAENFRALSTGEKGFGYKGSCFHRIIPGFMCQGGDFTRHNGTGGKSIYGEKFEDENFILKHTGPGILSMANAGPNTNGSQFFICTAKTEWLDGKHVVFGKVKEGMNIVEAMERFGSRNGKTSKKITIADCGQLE
In short: as §1

[3] = biological target: KRAS G12V (Homo sapiens, UniProt P01116+P62937, G12V); settings: Ras-Raf disruption, with Cyclophilin A; read-out: KRAS G12V FRET data IC50
KRAS G12V, sequence (P01116 1-169 isoform P01116-2 G12V limits assumed): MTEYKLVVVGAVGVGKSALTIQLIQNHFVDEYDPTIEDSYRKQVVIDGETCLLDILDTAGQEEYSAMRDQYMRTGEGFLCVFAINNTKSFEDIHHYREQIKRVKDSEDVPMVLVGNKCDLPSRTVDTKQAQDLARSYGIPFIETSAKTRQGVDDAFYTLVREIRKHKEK
KRAS G12V, sequence (P62937 whole entry): as the sequence (P62937 whole entry) above
In short: as §1

[4] = biological target: KRAS G13C (Homo sapiens, UniProt P01116+P62937, G13C); settings: Ras-Raf disruption, with Cyclophilin A; read-out: KRAS G13C FRET data IC50
KRAS G13C, sequence (P01116 1-169 isoform P01116-2 G13C limits assumed): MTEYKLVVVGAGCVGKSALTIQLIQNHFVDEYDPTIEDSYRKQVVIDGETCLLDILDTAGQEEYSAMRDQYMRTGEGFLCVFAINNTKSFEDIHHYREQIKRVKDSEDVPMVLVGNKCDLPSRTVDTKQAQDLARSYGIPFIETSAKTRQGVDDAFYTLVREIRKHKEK
KRAS G13C, sequence (P62937 whole entry): as the sequence (P62937 whole entry) above
In short: as §1

[5] = biological target: KRAS G13D (Homo sapiens, UniProt P01116+P62937, G13D); settings: Ras-Raf disruption, with Cyclophilin A; read-out: KRAS G13D FRET data IC50
KRAS G13D, sequence (P01116 1-169 isoform P01116-2 G13D limits assumed): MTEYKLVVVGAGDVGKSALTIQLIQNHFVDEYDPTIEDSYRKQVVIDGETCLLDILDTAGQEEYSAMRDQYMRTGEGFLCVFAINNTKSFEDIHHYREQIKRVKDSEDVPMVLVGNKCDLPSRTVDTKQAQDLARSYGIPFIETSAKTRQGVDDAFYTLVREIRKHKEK
KRAS G13D, sequence (P62937 whole entry): as the sequence (P62937 whole entry) above
In short: as §1

[6] = biological target: KRAS Q61H (Homo sapiens, UniProt P01116+P62937, Q61H); settings: KRAS Q61H; read-out: KRAS Q61H FRET data IC50
KRAS Q61H, sequence (P01116 1-169 isoform P01116-2 Q61H limits assumed): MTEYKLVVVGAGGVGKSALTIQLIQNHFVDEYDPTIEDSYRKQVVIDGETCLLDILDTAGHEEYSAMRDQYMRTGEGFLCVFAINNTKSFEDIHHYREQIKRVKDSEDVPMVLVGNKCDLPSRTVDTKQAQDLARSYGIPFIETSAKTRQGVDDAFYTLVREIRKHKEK
KRAS Q61H, sequence (P62937 whole entry): as the sequence (P62937 whole entry) above
In short: as §1

[7] = biological target: KRAS WT (Homo sapiens, UniProt P01116+P62937); settings: Ras-Raf disruption, with Cyclophilin A; read-out: KRAS WT FRET data IC50
KRAS WT, sequence (P01116 1-169 isoform P01116-2 limits assumed): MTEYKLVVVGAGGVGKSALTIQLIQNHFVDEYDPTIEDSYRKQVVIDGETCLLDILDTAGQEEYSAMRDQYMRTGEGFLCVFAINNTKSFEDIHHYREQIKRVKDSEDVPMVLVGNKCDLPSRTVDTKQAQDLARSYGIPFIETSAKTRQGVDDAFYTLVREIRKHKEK
KRAS WT, sequence (P62937 whole entry): as the sequence (P62937 whole entry) above
In short: as §1

[8] = biological target: NRAS G12C (Homo sapiens, UniProt P01111+P62937, G12C); settings: NRAS G12C; read-out: NRAS G12C FRET data IC50
NRAS G12C, sequence (P01111 whole entry G12C): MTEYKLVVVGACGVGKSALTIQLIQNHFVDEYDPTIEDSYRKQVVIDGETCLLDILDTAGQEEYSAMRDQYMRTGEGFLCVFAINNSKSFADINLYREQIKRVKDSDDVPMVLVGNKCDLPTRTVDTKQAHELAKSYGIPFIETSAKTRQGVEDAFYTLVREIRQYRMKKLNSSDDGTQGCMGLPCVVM
NRAS G12C, sequence (P62937 whole entry): as the sequence (P62937 whole entry) above
In short: as §1

[9] = biological target: NRAS Q61K (Homo sapiens, UniProt P01111+P62937, Q61K); settings: NRAS Q61K; read-out: NRAS Q61K FRET data IC50
NRAS Q61K, sequence (P01111 whole entry Q61K): as the sequence (P01111 whole entry G12C) above, with C12G, Q61K counted along it
NRAS Q61K, sequence (P62937 whole entry): as the sequence (P62937 whole entry) above
In short: as §1

[10] = biological target: NRAS Q61R (Homo sapiens, UniProt P01111+P62937, Q61R); settings: NRAS Q61R; read-out: NRAS Q61R FRET data IC50
NRAS Q61R, sequence (P01111 whole entry Q61R): as the sequence (P01111 whole entry G12C) above, with C12G, Q61R counted along it
NRAS Q61R, sequence (P62937 whole entry): as the sequence (P62937 whole entry) above
In short: as §1

[11] = biological target: NRAS WT (Homo sapiens, UniProt P01111+P62937); settings: NRAS WT; read-out: NRAS WT FRET data IC50
NRAS WT, sequence (P01111 whole entry): as the sequence (P01111 whole entry G12C) above, with C12G counted along it
NRAS WT, sequence (P62937 whole entry): as the sequence (P62937 whole entry) above
In short: as §1

[12] = biological target: KRAS G12C (Homo sapiens, UniProt P01116+P62937, G12C); settings: Ras-Raf disruption, with Cyclophilin A; read-out: KRAS G12C FRET data IC50
KRAS G12C, sequence (P01116 1-169 isoform P01116-2 G12C limits assumed): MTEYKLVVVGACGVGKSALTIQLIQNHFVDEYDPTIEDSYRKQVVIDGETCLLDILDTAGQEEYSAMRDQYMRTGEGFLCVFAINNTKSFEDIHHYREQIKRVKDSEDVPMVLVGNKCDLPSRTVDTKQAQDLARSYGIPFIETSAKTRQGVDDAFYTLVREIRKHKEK
KRAS G12C, sequence (P62937 whole entry): as the sequence (P62937 whole entry) above
In short: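 His6-K-Ras G12C-GMPPNP (12.5 nM), GST-BRAF RBD (50 nM) and tagless Cyclophilin A (25 μM) incubated 3 h at 25 °C with compound (10-point 3-fold series from 30 μM), pH 7.3 HEPES buffer. Anti-His Eu/anti-GST APC added for 1.5 h; decreased TR-FRET ratio vs DMSO gives IC50.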

KRAS G12D, sequence (P01116 1-169 isoform P01116-2 G12D limits assumed): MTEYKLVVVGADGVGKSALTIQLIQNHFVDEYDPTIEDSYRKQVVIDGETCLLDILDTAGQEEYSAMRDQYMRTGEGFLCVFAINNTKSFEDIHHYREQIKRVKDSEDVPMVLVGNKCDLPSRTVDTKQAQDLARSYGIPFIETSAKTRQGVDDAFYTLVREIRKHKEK
KRAS G12D, sequence (P62937 whole entry): as the sequence (P62937 whole entry) above

Row | SMILES | pIC50 [1] | pIC50 [2] | pIC50 [3] | pIC50 [4] | pIC50 [5] | pIC50 [6] | pIC50 [7] | pIC50 [8] | pIC50 [9] | pIC50 [10] | pIC50 [11] | pIC50 [12]
1 | CCn1c(-c2cccnc2[C@H](C)OC)c2c3cc(ccc31)-c1csc(n1)C[C@H](NC(=O)[C@H](C(C)C)N(C)C(=O)N1CC(N(C)C(=O)[C@@H]3CN3)C1)C(=O)N1CCC[C@H](N1)C(=O)OCC(C)(C)C2 (atropisomer, axis not shown) [Example 219] | 5.00 to 6.00 | 6.00 to 7.00 | 6.00 to 7.00 | 6.00 to 7.00 | 6.00 to 7.00 | 6.00 to 7.00 | 6.00 to 7.00 | 6.00 to 7.00 | 7.00 to 8.00 | 6.00 to 7.00 | 6.00 to 7.00 | 6.00 to 7.00
2 | CCn1c(-c2cccnc2[C@H](C)OC)c2c3cc(ccc31)-c1csc(n1)C[C@H](NC(=O)[C@H](C(C)C)N(C)C(=O)N1CCCN(C(=O)[C@H]3CN3)CC1)C(=O)N1CCC[C@H](N1)C(=O)OCC(C)(C)C2 (atropisomer, axis not shown) [Example 222] | 6.00 to 7.00 | 7.00 to 8.00 | 6.00 to 7.00 | 6.00 to 7.00 | 6.00 to 7.00 | 7.00 to 8.00 | 7.00 to 8.00 | 7.00 to 8.00 | 7.00 to 8.00 | 7.00 to 8.00 | 7.00 to 8.00 | 7.00 to 8.00
3 | CCn1c(-c2cccnc2[C@H](C)OC)c2c3cc(ccc31)-c1csc(n1)C[C@H](NC(=O)[C@H](C(C)C)N(C)C(=O)N1CCCN(C(=O)[C@@H]3CN3)CC1)C(=O)N1CCC[C@H](N1)C(=O)OCC(C)(C)C2 (atropisomer, axis not shown) [Example 223] | 6.00 to 7.00 | 6.00 to 7.00 | 6.00 to 7.00 | 6.00 to 7.00 | 6.00 to 7.00 | 7.00 to 8.00 | 7.00 to 8.00 | 7.00 to 8.00 | 7.00 to 8.00 | 7.00 to 8.00 | 7.00 to 8.00 | 7.00 to 8.00
4 | CCn1c(-c2cccnc2[C@H](C)OC)c2c3cc(ccc31)-c1csc(n1)C[C@H](NC(=O)[C@H](C(C)C)N(C)C(=O)N1CC(CN(C)C(=O)[C@H]3CN3)C1)C(=O)N1CCC[C@H](N1)C(=O)OCC(C)(C)C2 (atropisomer, axis not shown) [Example 224] | 6.00 to 7.00 | 6.00 to 7.00 | 6.00 to 7.00 | 6.00 to 7.00 | 6.00 to 7.00 | 7.00 to 8.00 | 6.00 to 7.00 | 7.00 to 8.00 | 7.00 to 8.00 | 7.00 to 8.00 | 7.00 to 8.00 | 7.00 to 8.00
5 | CCn1c(-c2cccnc2[C@H](C)OC)c2c3cc(ccc31)-c1csc(n1)C[C@H](NC(=O)[C@H](C(C)C)N(C)C(=O)N1CC(CN(C)C(=O)[C@@H]3CN3)C1)C(=O)N1CCC[C@H](N1)C(=O)OCC(C)(C)C2 (atropisomer, axis not shown) [Example 225] | 6.00 to 7.00 | 6.00 to 7.00 | 6.00 to 7.00 | 6.00 to 7.00 | 6.00 to 7.00 | 7.00 to 8.00 | 6.00 to 7.00 | 7.00 to 8.00 | 7.00 to 8.00 | 6.00 to 7.00 | 7.00 to 8.00 | 7.00 to 8.00
6 | CCn1c(-c2cccnc2[C@H](C)OC)c2c3cc(ccc31)-c1csc(n1)C[C@H](NC(=O)[C@H](C(C)C)N(C)C(=O)N1CC[C@@H](N(C)C(=O)[C@H]3CN3)C1)C(=O)N1CCC[C@H](N1)C(=O)OCC(C)(C)C2 (atropisomer, axis not shown) [Example 226] | 5.00 to 6.00 | 6.00 to 7.00 | 6.00 to 7.00 | 6.00 to 7.00 | 6.00 to 7.00 | 6.00 to 7.00 | 6.00 to 7.00 | 6.00 to 7.00 | 6.00 to 7.00 | 6.00 to 7.00 | 6.00 to 7.00 | 6.00 to 7.00
7 | CCn1c(-c2cccnc2[C@H](C)OC)c2c3cc(ccc31)-c1csc(n1)C[C@H](NC(=O)[C@H](C(C)C)N(C)C(=O)N1CC[C@@H](N(C)C(=O)[C@@H]3CN3)C1)C(=O)N1CCC[C@H](N1)C(=O)OCC(C)(C)C2 (atropisomer, axis not shown) [Example 227] | 6.00 to 7.00 | 6.00 to 7.00 | 6.00 to 7.00 | 6.00 to 7.00 | 6.00 to 7.00 | 7.00 to 8.00 | 6.00 to 7.00 | 7.00 to 8.00 | 7.00 to 8.00 | 6.00 to 7.00 | 6.00 to 7.00 | 6.00 to 7.00
8 | CCn1c(-c2cccnc2[C@H](C)OC)c2c3cc(ccc31)-c1csc(n1)C[C@H](NC(=O)[C@H](C(C)C)N(C)C(=O)N1CC[C@H](N(C)C(=O)[C@H]3CN3)C1)C(=O)N1CCC[C@H](N1)C(=O)OCC(C)(C)C2 (atropisomer, axis not shown) [Example 228] | 5.00 to 6.00 | 6.00 to 7.00 | 6.00 to 7.00 | 6.00 to 7.00 | 6.00 to 7.00 | 7.00 to 8.00 | 6.00 to 7.00 | 7.00 to 8.00 | 7.00 to 8.00 | 6.00 to 7.00 | 6.00 to 7.00 | 6.00 to 7.00
9 | CCn1c(-c2cccnc2[C@H](C)OC)c2c3cc(ccc31)-c1csc(n1)C[C@H](NC(=O)[C@H](C(C)C)N(C)C(=O)N1CC[C@H](N(C)C(=O)[C@@H]3CN3)C1)C(=O)N1CCC[C@H](N1)C(=O)OCC(C)(C)C2 (atropisomer, axis not shown) [Example 229] | 5.00 to 6.00 | 6.00 to 7.00 | 6.00 to 7.00 | 6.00 to 7.00 | 6.00 to 7.00 | 7.00 to 8.00 | 6.00 to 7.00 | 6.00 to 7.00 | 7.00 to 8.00 | 6.00 to 7.00 | 6.00 to 7.00 | 6.00 to 7.00
10 | CCn1c(-c2cccnc2[C@H](C)OC)c2c3cc(ccc31)-c1cc(O)cc(c1)C[C@H](NC(=O)[C@H](C(C)C)N(C)C(=O)[C@@H]1CCCN(C(=O)[C@H]3CN3)C1)C(=O)N1CCC[C@H](N1)C(=O)OCC(C)(C)C2 (atropisomer, axis not shown) [Example 237] | 6.00 to 7.00 | 7.00 to 8.00 | 6.00 to 7.00 | 7.00 to 8.00 | 6.00 to 7.00 | 7.00 to 8.00 | 7.00 to 8.00 | 7.00 to 8.00 | 6.00 to 7.00 | 6.00 to 7.00 | 7.00 to 8.00 | 7.00 to 8.00
11 | CCn1c(-c2cccnc2[C@H](C)OC)c2c3cc(ccc31)-c1cc(O)cc(c1)C[C@H](NC(=O)[C@H](C(C)C)N(C)C(=O)[C@H]1C[C@H]3CC[C@@H](C1)N3C(=O)[C@H]1CN1)C(=O)N1CCC[C@H](N1)C(=O)OCC(C)(C)C2 (atropisomer, axis not shown) [Example 245] | 6.00 to 7.00 | 6.00 to 7.00 | 6.00 to 7.00 | 7.00 to 8.00 | 6.00 to 7.00 | 7.00 to 8.00 | 7.00 to 8.00 | 7.00 to 8.00 | 6.00 to 7.00 | 6.00 to 7.00 | 7.00 to 8.00 | 7.00 to 8.00
12 | CCn1c(-c2cccnc2[C@H](C)OC)c2c3cc(ccc31)-c1cc(O)cc(c1)C[C@H](NC(=O)[C@H](C(C)C)N(C)C(=O)[C@H]1C[C@H]3CC[C@@H](C1)N3C(=O)[C@@H]1CN1)C(=O)N1CCC[C@H](N1)C(=O)OCC(C)(C)C2 (atropisomer, axis not shown) [Example 246] | 5.00 to 6.00 | 6.00 to 7.00 | 6.00 to 7.00 | 7.00 to 8.00 | 6.00 to 7.00 | > 8.00 | 7.00 to 8.00 | 7.00 to 8.00 | 7.00 to 8.00 | 6.00 to 7.00 | 7.00 to 8.00 | 7.00 to 8.00
